Test results reported in US7595395B2, “Gabaergic agents to treat memory deficits” (priority 2005, dated 2009).

Test system: C57B1/6 mice
Assay: Pavlovian fear conditioning, contextual memory, scopolamine impairment
Type: in vivo
Settings: for fear conditioned contextual memory, impairment by scopolamine (in words): 10 mg/kg compound, 1 mg/kg scopolamine, mouse; for reversal of scopolamine induced memory deficits (in words): mice, dose not stated
Protocol: Because the hippocampus is involved in the regulation of events underlying learning and memory, α5 subtype selective agents were evaluated for their ability to modulate hippocampal-dependent and hippocampal-independent forms of memory using Pavlovian fear conditioning paradigms with mice or rats. The protocols for these studies were reported in references Bailey, D. J., Tetzlaff, J. E., Cook, J. M., He, X. H. and Helmstetter, F. J., “Effects of Hippocampal Injections of A Novel Ligand Selective for the Alpha 5 Beta 2 Gamma 2 Subunits of the GABA/Benzodiazepine Receptor on Pavlovian Conditioning,” Neurobiol. Learn. Mem., 78, 1-10 (2002); Delorey, T. M., Lin, R. C., Mcbrady, B., He, X. H., Cook, J. M., Lameh, J. and Loew, G. H., “Influence of Benzodiazepine Binding Site Ligands on Fear-Conditioned Contextual Memory,” Eur. J. Pharmacol., 426, 45-54 (2001).
Further, animal data for FIGS. 22-26 were obtained using experimental methodologies described in a previously published reference, Influence of benzodiazepine binding site ligands on fear-conditioned contextual memory European journal of Pharmacology, Volume 426, Issues 1-2, 24 Aug. 2001, Pages 45-54, Timothy M. DeLorey, Richard C. Lin, Brian McBrady, Xiaohui He, James M. Cook, Jelveh Lameh and Gilda H. Loew, which is incorporated by reference as if fully set forth here in its entirety. Selected sections of the reference are provided below:
Male C57B1/6 mice were obtained from Charles Rivers Laboratories (Holister, Calif.) at 6 weeks of age. Mice used in fear conditioning were between 7 and 12 weeks of age. Animals were housed eight to a cage in rooms with a normal 12-h light/12-h dark cycle (lights on 700-1900 h) with free access to food and water. Tests were conducted during the light phase between 1300 and 1700 h with a 20-min acclimation period in the testing room prior to drug or vehicle administration. All animal protocols used in this study conform to the guidelines determined by the National Institute of Health (USA) Office for Protection from Research Risks and are approved by the Animal Care and Use Committee of the Palo Alto Veterans Administration Medical Center, Palo, Alto, Calif. (USA).
Before testing each day, the mice were moved to a holding room and allowed to acclimate for at least 30 min. Each mouse received an i.p. injection of one of the following: vehicle, benzodiazepine binding site ligand (2-30 mg/kg), scopolamine (1 mg/kg), methylscopolamine (1 mg/kg) or scopolamine (1 mg/kg) combined with one of the benzodiazepine binding site ligands (2-30 mg/kg). The dose level chosen for each compound was one that neither elicited convulsions nor impaired locomotion. Twenty minutes after injection, the mice were placed individually in one of four identical experimental chambers (Med Associates, St. Albans, Vt.) that had been scented with 0.3% ammonium hydroxide solution before testing. Chambers were back-lit with fluorescent light with a white noise generator providing 70 dB of background noise. […] Twenty-four hours later, contextual memory was assessed by placing the mice back into the freshly rescented (0.3% Ammonium hydroxide) conditioning chambers in which they were trained, for a 4-min test period in the absence of footshock. Conditioned fear to the context was assessed by measuring the freezing response according to the methods of Fanselow and Bolles (1979). […] An observer, blind to the drug(s) used, scored each mouse every 8 s, for a total of 4 min, for presence or absence of freezing. […]

COCc1ncn2c1CN(C)C(=O)c1cc(Cl)ccc1-2 [PWZ-029, methyl(8-chloro-5,6-dihydro-5-methyl-6-oxo-4H-imidazo[1,5-α][1,4]benzodiazepin-3-yl)methyl ether]
fear conditioned contextual memory, impairment by scopolamine (in words): attenuation of contextual memory impairment | reversal of scopolamine induced memory deficits (in words): reverse scopolamine induced memory deficits

CCc1ccc2c(c1)C(=O)N(C)Cc1c(C(=O)OCCCOC(=O)c3ncn4c3CN(C)C(=O)c3cc(CC)ccc3-4)ncn1-2 [XLi356, 1,3-Bis(8-ethyl-5,6-dihydro-5-methyl-6-oxo-4H-imidazo[1,5a][1,4]benzodiazepine-3-carboxy)propyl diester]
fear conditioned contextual memory, impairment by scopolamine (in words): attenuates the impairment of memory | reversal of scopolamine induced memory deficits (in words) (listed as XLi 356): potently reverse scoploamine induced memory deficiencies | reversal of scopolamine induced memory deficits (in words) (listed as Xli356): reverse scopolamine induced memory deficits
